Data on two compounds can be found in paper PMC6333442, “Conserved allosteric pathways for activation of TRPV3 revealed through engineering vanilloid-sensitivity” (eLife, 2019).

The target of assay [1] is T1, WT mouse TRPV3 (Mus musculus, UniProt Q8K424).
T1 construct: expressed in transfected cells; host or cells: Xenopus laevis oocytes (cRNA injection, pGEM-HE vector)
T1 sequence (Q8K424 1-791): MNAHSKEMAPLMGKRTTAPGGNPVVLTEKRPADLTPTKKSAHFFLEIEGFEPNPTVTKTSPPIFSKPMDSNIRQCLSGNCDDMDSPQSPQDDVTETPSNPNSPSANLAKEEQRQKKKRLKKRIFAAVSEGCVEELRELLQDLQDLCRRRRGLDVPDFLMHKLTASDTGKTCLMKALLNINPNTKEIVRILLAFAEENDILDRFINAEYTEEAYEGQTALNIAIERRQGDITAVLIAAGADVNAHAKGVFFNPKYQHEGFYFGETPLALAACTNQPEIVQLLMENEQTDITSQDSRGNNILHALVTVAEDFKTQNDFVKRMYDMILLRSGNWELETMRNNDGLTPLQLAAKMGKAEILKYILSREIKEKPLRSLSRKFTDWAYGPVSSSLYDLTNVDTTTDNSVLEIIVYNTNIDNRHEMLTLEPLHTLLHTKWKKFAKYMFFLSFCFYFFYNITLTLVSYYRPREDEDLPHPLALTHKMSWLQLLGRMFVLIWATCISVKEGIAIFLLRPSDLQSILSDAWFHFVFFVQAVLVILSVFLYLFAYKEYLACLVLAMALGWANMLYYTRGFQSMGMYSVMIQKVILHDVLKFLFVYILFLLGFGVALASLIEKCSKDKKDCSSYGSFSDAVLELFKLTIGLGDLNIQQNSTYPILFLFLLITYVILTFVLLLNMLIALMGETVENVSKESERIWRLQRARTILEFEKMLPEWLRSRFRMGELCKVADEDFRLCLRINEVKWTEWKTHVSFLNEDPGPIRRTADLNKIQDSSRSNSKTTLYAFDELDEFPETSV
It counts as cell-based. Here is the method:
(§1) All channel constructs were expressed in Xenopus laevis oocytes and studied using the two-electrode voltage clamp technique (TEVC) following 1–4 days of incubation after cRNA injection. The animal care and experimental procedures were performed in accordance with the Guide for the Care and Use of Laboratory Animals and were approved by the Animal Care and Use Committee of the National Institute of Neurological Disorders and Stroke (Animal protocol number 1253–17). Oocytes were removed surgically and incubated with agitation for 1 hr in a solution containing (in mM) 82.5 NaCl, 2.5 KCl, 1 MgCl2, 5 HEPES, pH 7.6 (with NaOH), and collagenase (2 mg/ml; Worthington Biochemical, Lakewood, NJ). Defolliculated oocytes were injected with cRNA for each of the constructs and incubated at 17°C in a solution containing (in mM) 96 NaCl, 2 KCl, 1 MgCl2, 1.8 CaCl2, 5 HEPES, pH 7.6 (with NaOH), and gentamicin (50 μg/ml, GIBCO-BRL, Gaithersburg, MD). Oocyte membrane voltage was controlled using an OC-725C oocyte clamp (Warner Instruments, Hamden, CT). Data were filtered at 1–3 kHz and digitized at 20 kHz using pClamp software (Molecular Devices, Sunnyvale, CA) and a Digidata 1440A digitizer (Axon Instruments). Microelectrode resistances were 0.1–1 MΩ when filled with 3 M KCl. For recording TRP channel currents, the external recording solution contained (in mM) 100 KCl, 10 HEPES, pH 7.6 (with KOH). Experiments were performed at room temperature (~22°C), except as indicated otherwise. […] Current time courses were obtained by stepping membrane voltage every 2 s from a holding potential of 0 mV to either −60 or +60 mV for 100 ms, and plotting the mean steady-state current at the end of each voltage step as a function of total recording time. I-V relations were obtained similarly, but voltage was stepped every 2 s to a different value, in 10 mV increments and starting at −60 mV.
(§2) For temperature-activation experiments, calcium-activated chloride currents were minimized by using calcium-free solution containing 30 µM Caccinh-A01 and recording at negative membrane voltages. Heat stimuli were achieved by passing the external recording solution through glass capillary spirals immersed in a water bath maintained at about 70°C, and recordings were performed during constant perfusion with temperature measured using a thermistor (TA-29, Warner Instruments) located close to the cell. The thermistor was connected to the digitizer via a temperature controller (TC-324B, Warner Instruments) ([Zhang et al., 2018]). Oocytes injected with the various constructs were only studied if un-injected oocytes from the same batch contained a low density of endogenous temperature-sensitive currents at negative membrane voltages. For delivering cold stimuli, the external solution was passed through glass capillary spirals that were immersed in an ice bath. The mean I vs T relations were calculated by automatically binning each of the recordings in temperature intervals of 2°C, and averaging a single data point within each interval per cell. All data analysis was carried out using Igor Pro 6.3 (Wavemetrics, Portland, OR). Q10 values were obtained from Q10 = 10^10 x m, where m is the slope of linear fits to normalized log(current) vs temperature relations (not shown) over temperature intervals ~ 20–34°C or 38 – 45°C ([Zhang et al., 2018]).

Assay [2] addresses T2, mouse TRPV3-6M (Mus musculus, UniProt Q8K424, A560T/F522S/H523E/L557M/Q580E/W521Y).
T2 construct: expressed in transfected cells; host or cells: Xenopus laevis oocytes
T2 sequence (Q8K424 1-791 W521Y/F522S/H523E/L557M/A560T/Q580E): T1 sequence (Q8K424 1-791) with W521Y, F522S, H523E, L557M, A560T, Q580E
It counts as cell-based. As to conditions: for channel activation (current response): RTx 100 nM, 2-APB 3 mM, room temperature, ±60 mV. The method, then:
as §1, §2

Where a chain is given by its changes, count along the chain named.

As for `C=C(C)[C@]12C[C@@H](C)[C@@]34O[C@](Cc5ccccc5)(O[C@@H]1[C@@H]3C=C(COC(=O)Cc1ccc(O)c(OC)c1)C[C@]1(O)C(=O)C(C)=C[C@@H]41)O2` [RTx, resiniferatoxin], the figures for the “channel activation by RTx after 2-APB pre-stimulation” value in assay [1] (RTx 100 nM after short stimulation with 2-APB (3 mM)) and in assay [2] (RTx 100 nM after short stimulation with saturating 2-APB (3 mM)) were “did not activate” and “robust activation”, respectively. In addition, the “channel activation by RTx together with heating” value in assay [1] (RTx 100 nM with heating) is reported as “did not elicit any response”; in assay [2] (RTx 100 nM with short heating pulse, temperatures slightly above room temperature), “prominent activation”. For the same compound, the “channel activation (current response)” value in assay [2] is on record as “insensitive”.

Turning to `NCCOB(c1ccccc1)c1ccccc1` [2-APB, 2-aminoethoxydiphenyl borate], the “channel activation (current response)” value is given as “robust responses” in assay [1] (2-APB 3 mM, room temperature) and “robust responses” in assay [2]. The “s (slope) of Hill fit, 2-APB concentration-response” value in assay [1] (-60 mV) came to 2.63. In addition, in assay [1] (-60 mV, room temperature, Hill fit, read-out: apparent affinity (EC50) for activation by 2-APB), the EC50 was 464 ± 12 µM.
